According to ChEMBL document CHEMBL4033740, “Novel phenanthrene and isocoumarin from the rhizomes of Dioscorea nipponica Makino subsp. rosthornii (Prain et Burkill) C. T. Ting (Dioscoreaceae)” (Bioorg Med Chem Lett, 2017):

Tested on: NCI-H460
Experiment: Cytotoxicity against human NCI-H460 cells incubated for 24 hrs by MTT assay
Assay type: functional, cell-based
Conditions: NCI-H460, 24 h

CC(=O)O[C@H]1CC[C@@]2(C)C(=CC[C@H]3[C@@H]4C[C@@H]5O[C@]6(CC[C@@H](C)CO6)[C@@H](C)[C@@H]5[C@@]4(C)CC[C@@H]32)C1
IC50: > 50 µM

O=c1oc(-c2ccccc2O)cc2cc3c(c(O)c12)OCO3
IC50: > 50 µM

COc1cc2ccc3c(-c4c(OC)cc(O)c5c4ccc4cc(OC)c(O)cc45)c(OC)cc(O)c3c2cc1O
IC50: 23.1 µM

O=C(C[C@@H]1C[C@@H](O)C[C@H](c2ccccc2)O1)c1ccccc1
IC50: > 50 µM

O=C1O[C@H](c2ccccc2)Cc2cc(O)cc(O)c21
IC50: > 50 µM

C[C@H]1[C@H]2[C@H](C[C@H]3[C@@H]4CC=C5C[C@@H](O)CC[C@]5(C)[C@H]4CC[C@]23C)O[C@]12CC[C@@H](CO)CO2
IC50: > 50 µM

CC(C)C[C@H]1NC(=O)[C@@H]2CCCN2C1=O
IC50: > 50 µM

O=C(/C=C/C=C/c1ccc(O)cc1)CCc1ccc(O)cc1
IC50: > 50 µM

CCCCC(CC)COC(=O)c1ccccc1C(=O)OCC(CC)CCCC (centres undefined) [BIS(2-ETHYLHEXYL) PHTHALATE]
IC50: > 50 µM

C[C@@H]1CC[C@@]2(OC1)O[C@H]1C[C@H]3[C@@H]4CC=C5C[C@@H](O[C@@H]6O[C@H](CO)[C@@H](O[C@@H]7O[C@H](CO)[C@@H](O)[C@H](O)[C@H]7O)[C@H](O)[C@H]6O[C@@H]6O[C@@H](C)[C@H](O)[C@@H](O)[C@H]6O)CC[C@]5(C)[C@H]4CC[C@]3(C)[C@H]1[C@@H]2C [DELTONIN]
IC50: 5.81 µM

C[C@@H]1CC[C@@]2(OC1)O[C@H]1C[C@H]3[C@@H]4CC=C5C[C@@H](O[C@@H]6O[C@H](CO)[C@@H](O[C@@H]7O[C@@H](C)[C@H](O)[C@@H](O)[C@H]7O)[C@H](O)[C@H]6O[C@@H]6O[C@@H](C)[C@H](O)[C@@H](O)[C@H]6O)CC[C@]5(C)[C@H]4CC[C@]3(C)[C@H]1[C@@H]2C [DIOSCIN]
IC50: 4.56 µM

C[C@@H]1CC[C@@]2(OC1)O[C@H]1C[C@H]3[C@@H]4CC=C5C[C@@H](O)CC[C@]5(C)[C@H]4CC[C@]3(C)[C@H]1[C@@H]2C [DISOGENIN]
IC50: > 50 µM

C[C@@H]1CC[C@@]2(OC1)O[C@H]1C[C@H]3[C@@H]4CC=C5C[C@@H](O[C@@H]6O[C@H](CO)[C@@H](O)[C@H](O)[C@H]6O[C@@H]6O[C@@H](C)[C@H](O)[C@@H](O)[C@H]6O)CC[C@]5(C)[C@H]4CC[C@]3(C)[C@H]1[C@@H]2C [OPHIOPOGONIN C]
IC50: 5.04 µM

CC[C@H](CC[C@@H](C)[C@H]1CC[C@H]2[C@@H]3CC=C4C[C@@H](O[C@@H]5O[C@H](CO)[C@@H](O)[C@H](O)[C@H]5O)CC[C@]4(C)[C@H]3CC[C@]12C)C(C)C [SITOGLUSIDE]
IC50: > 50 µM
